Key:
Assay type in all cases: in vivo, rat
sensory saphenous nerve = experiment: Sensory nerve conduction velocity (saphenous nerve) in streptozotocin-diabetic rats; conditions: STZ-diabetic rats, lovastatin 5.5 mg/kg; for SNCV (sensory nerve conduction velocity): 2-week treatment after 6 weeks untreated diabetes, ruboxistaurin 0.25 mg/kg, mean ± SEM; for correction of diabetic deficit in sensory conduction velocity: individual doses: ruboxistaurin 0.25 mg/kg
Method: (§1) Diabetes is induced in mature (19 week old) male Sprague-Dawley by streptozotocin injection (40-45 mg/kg i.p.). The diabetic state is monitored weekly using commercially available test strips for blood (tail vein) and urine glucose levels. Body weight is also be monitored daily. The criteria for the diabetic state are; blood glucose>19.9 mM, glycosuria, and no evidence of body weight gain. After 6 weeks of untreated diabetes, drugs are administered for a 2-week period.
(§2) In final experiments, rats are anaesthetized with thiobutabarbital (50-100 mg kg^−1 i.p.). The trachea is cannulated for artificial respiration. As described in Cameron N E, Cotter M A, Robertson S (1989), “The effect of aldose reductase inhibition on the pattern of nerve conduction deficits in diabetic rats.” Q. J. Exp. Physiol. 74:917-926; and Cameron N E, Cotter M A, Robertson S (1991), “Effects of essential fatty acid supplementation on peripheral nerve and skeletal muscle function and capillarization in streptozotocin diabetic rats.” Diabetes 40:532-539, the sciatic nerve is exposed between the sciatic notch and knee. Bipolar stimulating electrodes are placed close to the nerve at the notch and knee. A concentric bipolar electrode is inserted into tibialis anterior muscle to monitor evoked electromyographic (EMG) activity. Potentials from each stimulating site are averaged 8 times. Motor conduction velocity is calculated by dividing the distance between stimulating electrodes by the average latency difference between the onset of EMG potentials evoked from the 2 sites. Nerve temperature is monitored using a thermocouple probe, and maintained in the range 36-38° C. by radiant heat. Body temperature is also maintained around 37° C. using a heated blanket. Sensory conduction velocity is measured for sensory saphenous nerve between groin and mid calf in a similar fashion, except that direct nerve evoked potentials are recorded at the ankle using a unipolar platinum hook electrode.

[1] = tested on: sciatic nerve endoneurium; experiment: Sciatic endoneurial blood flow by microelectrode polarography and hydrogen clearance in streptozotocin-diabetic rats; conditions: STZ-diabetic rats, ruboxistaurin 0.25 mg/kg, lovastatin 5.5 mg/kg, mean ± SEM; for Blood Flow (sciatic endoneurial nutritive): 2-week treatment after 6 weeks untreated diabetes; for Vascular Conductance: blood flow divided by mean arterial blood pressure, 2-week treatment
Method: as §1
Sciatic endoneurial blood flow is estimated in the limb contralateral to that for conduction velocity measurements by microelectrode polarography and hydrogen clearance. Day T J, Lagerlund T D, Low P A (1989), “Analysis of H2 clearance curves used to measure blood flow in rat sciatic nerve,” J Physiol 414:35-54; Cameron N E, Cotter M A, Low P A (1991), “Nerve blood flow in early experimental diabetes in rats: relation to conduction deficits.” Am J Physiol 261:E1-E8; Cameron N E, Cotter M A, Hohman T C (1996), “Interactions between essential fatty acid, prostanoid, polyol pathway and nitric oxide mechanisms in the neurovascular deficit of diabetic rats,” Diabetologia 39:172-182. Rats are artificially ventilated. The carotid artery is cannulated to monitor blood pressure. The level of anaesthesia is monitored by observing any reaction of blood pressure to manipulation, and supplementary thiobutabarbital anaesthetic is given as necessary. The sciatic nerve is exposed and the skin around the incision sutured to a metal ring to form a pool filled with mineral oil at 37° C. During recordings, pool temperature is maintained at 35-37° C. by radiant heat. A glass-insulated platinum microelectrode, polarized at 250 mV with respect to a subcutaneous reference electrode, is inserted into the sciatic nerve endoneurium between the sciatic notch and the nerve trifurcation above the knee. 10% H2 would be added to the inspired gas, the proportions of O2 and N2 being adjusted to 20% and 70% respectively. When the H2 current recorded by the electrode has stabilized, indicating equilibrium with arterial blood, the H2 supply is shut off and N2 delivery increased appropriately. H2 clearance is recorded until a stable baseline is reached, which is defined as no systematic decline in electrode current over 5 min. This procedure is then repeated at another nerve site. […] Assuming a tissue density of 1, nutritive blood flow would be calculated as d×100 (ml min^−1 100 g^−1). Vascular conductance is calculated by dividing blood flow by the mean arterial blood pressure over the recording period for that particular clearance curve. […]

sciatic nerve = experiment: Motor nerve conduction velocity (sciatic nerve) in streptozotocin-diabetic rats; conditions: STZ-diabetic rats, lovastatin 5.5 mg/kg; for MNCV (motor nerve conduction velocity): 2-week treatment after 6 weeks untreated diabetes, ruboxistaurin 0.25 mg/kg, mean ± SEM; for correction of diabetic deficit in motor conduction velocity: individual doses: ruboxistaurin 0.25 mg/kg
Method: as §1, §2

| Structure (SMILES) | SNCV (sensory nerve conduction velocity) (sensory saphenous nerve) [m/s] | correction of diabetic deficit in sensory conduction velocity (sensory saphenous nerve) [%] | Blood Flow (sciatic endoneurial nutritive) [1] [ml/min/100 g] | Vascular Conductance [1] [ml/min/100 g/mm Hg] | MNCV (motor nerve conduction velocity) (sciatic nerve) [m/s] | correction of diabetic deficit in motor conduction velocity (sciatic nerve) [%] |
| --- | --- | --- | --- | --- | --- | --- |
| CN(C)C[C@@H]1CCn2cc(c3ccccc32)C2=C(C(=O)NC2=O)c2cn(c3ccccc23)CCO1 [LY, (S)-9-((Dimethylamino)methyl)-6,7,10,11-tetrahydro-9H,18H-5,21:12,17-dimethenodibenzo(e,k)pyrrolo(3,4-h)(1,4,13)oxadiaza-cyclohexadecine-18,20(19H)-dione] | 54.8 ± 0.3 | ~20 | 10.7 ± 0.4 | 0.101 ± 0.008 | 53.5 ± 0.3 | ~20 |
| CC[C@H](C)C(=O)O[C@H]1C[C@@H](C)C=C2C=C[C@H](C)[C@H](CC[C@@H]3C[C@@H](O)CC(=O)O3)[C@H]21 [LOV, lovastatin] | 54.6 ± 0.4 | ~20 | 10.4 ± 0.6 | 0.091 ± 0.006 | 54.0 ± 0.4 | ~20 |
